Source: ChEMBL document CHEMBL5375953, “Discovery of Biaryl Amide Derivatives as Potent, Selective, and Orally Bioavailable RORγt Agonists for Cancer Immunotherapy” (J Med Chem, 2023)

Experiments:
[1] = Metabolic Stability in cynomolgus monkey liver microsome assessed as intrinsic clearance at […] measured upto 60 mins by HPLC-MS/MS analysis; format: ADME, Macaca fascicularis; settings: microsomes, 1 h
[2] = Volume of distribution at steady state in dog at 1 mg/kg,iv administration measured after 24 hrs by LC-MS/MS analysis; format: ADME, organism-based, Canis lupus familiaris; settings: in vivo, read-out: Vdss
[3] = Metabolic Stability in human liver microsome assessed as half life at […] measured upto 60 mins by HPLC-MS/MS analysis; format: ADME; settings: liver microsomes
[4] = system: B16-F10; experiment: Antitumor activity against mouse B16-F10 cells xenografted in C57BL/6 mouse assessed as tumor growth inhibition at 50 mg/kg,ip administrated on day 7 for 8 days relative to control; format: functional; settings: B16-F10, 192 h, time 8 day, read-out: TGI
[5] = Clearance in rat at 1 mg/kg,iv administration measured after 24 hrs by LC-MS/MS analysis; format: ADME, organism-based; settings: in vivo
[6] = Volume of distribution at steady state in CD-1 mouse at 1 mg/kg,iv administration measured after 24 hrs by LC-MS/MS analysis; format: ADME, organism-based; settings: in vivo
[7] = Oral bioavailability in dog at 2 mg/kg administration measured after 24 hrs by LC-MS/MS analysis; format: ADME, organism-based, Canis lupus familiaris; settings: in vivo
[8] = Half life in dog at 1 mg/kg,iv administration measured after 24 hrs by LC-MS/MS analysis; format: ADME, organism-based, Canis lupus familiaris; settings: in vivo
[9] = Oral bioavailability in rat at 5 mg/kg administration measured after 24 hrs by LC-MS/MS analysis; format: ADME, organism-based; settings: in vivo
[10] = Toxicity against C57BL/6 mouse xenografted with mouse B16-F10 cells assessed as animal death at 25 to 100 mg/kg,ip administrated on day 7 for 8 days; format: organism-based; settings: in vivo, 192 h, dose 25-100 mg/kg, time 8 day
[11] = Metabolic Stability in rat liver microsome assessed as intrinsic clearance at […] measured upto 60 mins by HPLC-MS/MS analysis; format: ADME; settings: microsomes, 1 h
[12] = AUC(infinity) in rat at 5 mg/kg,po administration measured after 24 hrs by LC-MS/MS analysis; format: ADME, organism-based; set-up: time 24 hrs, dose 5 mg/kg, route po; settings: in vivo
[13] = Volume of distribution at steady state in rat at 1 mg/kg,iv administration measured after 24 hrs by LC-MS/MS analysis; format: ADME, organism-based; settings: in vivo, read-out: Vdss
[14] = AUC(infinity) in CD-1 mouse at 5 mg/kg,po administration measured after 24 hrs by LC-MS/MS analysis; format: ADME, organism-based; set-up: dose 5 mg/kg, time 24 hrs, route po; settings: in vivo
[15] = AUC(infinity) in dog at 1 mg/kg,iv administration measured after 24 hrs by LC-MS/MS analysis; format: ADME, organism-based, Canis lupus familiaris; set-up: time 24 hrs, dose 1 mg/kg, route iv; settings: in vivo
[16] = Metabolic Stability in dog liver microsome assessed as intrinsic clearance at […] measured upto 60 mins by HPLC-MS/MS analysis; format: ADME, Canis lupus familiaris; settings: microsomes, 1 h
[17] = AUC(infinity) in CD-1 mouse at 1 mg/kg,iv administration measured after 24 hrs by LC-MS/MS analysis; format: ADME, organism-based; set-up: time 24 hrs, dose 1 mg/kg, route iv; settings: in vivo
[18] = Half life in rat at 1 mg/kg,iv administration measured after 24 hrs by LC-MS/MS analysis; format: ADME, organism-based; settings: in vivo
[19] = Metabolic Stability in cynomolgus monkey liver microsome assessed as half life at […] measured upto 60 mins by HPLC-MS/MS analysis; format: ADME, Macaca fascicularis; settings: liver microsomes
[20] = AUC(infinity) in dog at 2 mg/kg,po administration measured after 24 hrs by LC-MS/MS analysis; format: ADME, organism-based, Canis lupus familiaris; set-up: dose 2 mg/kg, time 24 hrs, route po; settings: in vivo
[21] = Half life in dog at 2 mg/kg,po administration measured after 24 hrs by LC-MS/MS analysis; format: ADME, organism-based, Canis lupus familiaris; settings: in vivo
[22] = Metabolic Stability in mouse liver microsome assessed as half life at […] measured upto 60 mins by HPLC-MS/MS analysis; format: ADME; settings: liver microsomes
[23] = Clearance in dog at 1 mg/kg,iv administration measured after 24 hrs by LC-MS/MS analysis; format: ADME, organism-based, Canis lupus familiaris; settings: in vivo
[24] = system: B16-F10; experiment: Antitumor activity against mouse B16-F10 cells xenografted in C57BL/6 mouse assessed as tumor growth inhibition at 100 mg/kg,ip administrated on day 7 for 8 days relative to control; format: functional; settings: B16-F10, 192 h, time 8 day, read-out: TGI
[25] = Toxicity against C57BL/6 mouse xenografted with mouse Lung adenocarcinoma cell line assessed as change in body weight at 25 mg/kg,ip administrated on day 7 for 12 days; format: organism-based; settings: in vivo, 288 h, time 12 day
[26] = Metabolic Stability in human liver microsome assessed as microsomal intrinsic clearance at […] measured upto 60 mins by HPLC-MS/MS analysis; format: ADME; settings: liver microsomes, read-out: CLH

CCS(=O)(=O)c1ccc(CC(=O)Nc2cc(Cl)c(-c3ccc(OC(C)C)c(C#N)c3)c(Cl)c2)cc1
CLH [1]: 60.2 µL/min/mg | Vd [2]: 2.5 L/kg | half-life [3]: > 2.42 h | inhibition in vivo at 50 mg/kg [4]: 54.7% | clearance [5]: 3.2 mL/min/kg | Vdss [6]: 2 L/kg | bioavailability [7]: 52.2% | half-life [8]: 46.5 h | bioavailability [9]: 39.4% | Activity [10]: Non-Toxic | CLH [11]: < 17.3 µL/min/mg | AUC(0-inf) [12]: 10600 ng·h/mL | Vd [13]: 2.8 L/kg | AUC(0-inf) [14]: 20600 ng·h/mL | AUC(0-inf) [15]: 27000 ng·h/mL | CLH [16]: < 13.8 µL/min/mg | AUC [17]: 4621.9 ng·h/mL | half-life [18]: 11.2 h | half-life [19]: 0.518 h | AUC(0-inf) [20]: 33000 ng·h/mL | half-life [21]: 59.1 h | half-life [22]: > 2.42 h | clearance [23]: 0.64 mL/min/kg | inhibition in vivo at 100 mg/kg [24]: 77.9% | Activity [25]: Non-Toxic | microsomal CLint [26]: < 9.6 µL/min/mg
